How the values were obtained:
DU145 xenografts = assay: PET/CT-imaging in DU145-tumor bearing mice; type: in vivo; conditions: microPET/CT; for renal clearance / background activity: 50-70min after injection; for tumor-contrast: 50-70min after injection of - 10 MBq radiotracer; for background activity: except for kidney and bladder uptake
Method: Example 9 was imaged on a microPET/ CT (Inveon, Siemens) in DU145 tumor-bearing mice 50-70min after injection of - 10 MBq radiotracer 45.
Example 10 was imaged on a microPET/ CT (Inveon, Siemens) in DU145 tumor-bearing mice 50-70min after injection of - 10 MBq radiotracer 46.

[1] = McConathy and Goodman, Cancer Metastasis Rev. 2008; cited from earlier work
[2] = tested on: primary prostate cancer tumors; conditions: prostate cancer patients, cited from earlier work; for uptake into primary prostate cancer tumors: Schuster et al., abstract at SNM 2010
[3] = tested on: DU145 prostate cancer cells; assay: Cell-uptake experiment: uptake of [14C] ACPC in the presence of excess heterocyclic amino acid; type: cell-based; conditions: 5 µM 14C-ACPC, 60 minutes at 37°C, uptake buffer PBS with 0.1% BSA, Figure 10
Method: To assess the difference between heterocyclic amino acids and other non-natural amino acids, we studied the uptake of the cyclic amino acid [14C] ACPC into DU145 prostate cancer cells in the presence of excess amount of an heterocyclic amino acid (compound 15). 25000 DU145 cells were seeded per cavity of a 48 well incubation plate (Becton Dickinson; Cat. 353078) and incubated for 2 days in D-MEM / F-12 (1:1) with GlutaMAx (Invitrogen; Cat. 31331) medium supplemented with 10% FCS in an incubator (37°C, 5%CO2).

renal clearance (DU145 xenografts) | background activity (DU145 xenografts) | SMILES | tumor-contrast (DU145 xenografts) | uptake into primary prostate cancer tumors [2] | background in other organs [2] | renal elimination / excretion into the bladder [2] | further results
rapid renal clearance | very low background activity | NC1(C(=O)O)COCC1[18F] (racemic) [tracer 45, (3SR,4SR)-3-Amino-4-[^18F]fluorotetrahydrofuran-3-carboxylic acid] | High tumor-contrast | – | – | – | –
– | – | NC1([11C](=O)O)CCC1 [[11C]ACBC, 1-aminocyclobutane-1-[11C]carboxylic acid] | – | – | – | – | metabolism [1]: not metabolized
– | – | N[C@]1(C(=O)O)C[C@@H](F)C1 [3-FACBC, anti-1-amino-3-[18F]fluorocyclobutyl-1-carboxylic acid] | – | showed uptake into primary prostate cancer tumors | high background in other organs such as liver and heart | delayed renal elimination | –
– | – | NC1(C(=O)O)CCCC1[18F] (centres unmarked) [2-FACPC] | – | showed uptake into primary prostate cancer tumors | high background signals for instance in the blood pool | excreted into the bladder more rapidly | –
– | – | N[C@]1(C(=O)O)COC[C@H]1F (racemic) [compound 15, (3SR,4SR)-3-Amino-4-fluorotetrahydrofuran-3-carboxylic acid] | – | – | – | – | [14C] ACPC uptake into DU145 prostate cancer cells in the presence of excess amount of heterocyclic amino acid [3]: able to block [14C] ACPC uptake
rapid renal clearance | very low background activity | N[C@@]1(C(=O)O)CCOC[C@@H]1[18F] (racemic) [tracer 46, (3RS,4RS)-4-Amino-3-[^18F]fluoro-3,4,5,6-tetrahydro-2H-pyran-4-carboxylic acid] | High tumor-contrast | – | – | – | –
